Columns and labels:
[1] = tested on: nitrification in soil Limburgerhof; experiment: Inhibition of nitrification in soil, Experiment 2 (incubation 42 days)
Protocol: (§1) The mixtures of the invention were tested as follows in terms of the inhibition of nitrification:
(§2) 100 g soil (soil Limburgerhof with pH(CaCl2) 6.8; 73% sand, 23% silt, 4% clay, which is classified according to FAO as a sandy loam) is filled into 500 ml plastic bottles and is moistened to 50% water holding capacity. The soil is incubated at 20° C. for two weeks prior to the experiments to activate the microbial biomass. 1 ml test solution, containing the components of the mixture in the appropriate concentration (usually from 0.1 to 3.13% (w/w) of fertilized NH4—N), and 10 mg nitrogen in the form of ammoniumsulfate-N(NH4—N) is added to the soil and everything mixed well. Unfertilized controls received 1 ml pure water. Bottles are capped but loosely to allow air exchange. The bottles are then incubated at 20° C. for 0 and 28 days in Experiment 1, and for 0 and 42 days in Experiment 2.
(§3) For analysis, 300 ml of a 1% K2SO4-solution is added to the bottle containing the soil and shaken for 2 hours in a horizontal shaker at 150 rpm. Then the whole solution is filtered through a filter (Macherey-Nagel Filter MN 807 ¼). Ammonium and nitrate content is then analyzed in the filtrate using an autoanalyzer. Ammonium was quantified via an indophenol blue dye at 660 nm, and nitrate via an azo dye at 540 nm.
(§4) The nitrification inhibition is expressed as % of NH4—N recovery from fertilized NH4—N(100%) after subtraction of unfertilized control soil, and as % inhibition of NO3—N formation (% reduction of NO3^− production) according to the formula:
(§5) In every experiment three tests (n=3) regarding the inhibition of nitrification were performed in each case.
(§6) The results were compared with the results calculated by Colby (Colby, S.R., Calculating synergistic and antagonistic responses of herbicide combinations, Weeds, 15, pp. 20-22, 1967) for an additive effect.
(§7) Colby's formula:E=x+y−x·y/100 • E=expected efficacy, expressed in % of the untreated control, when using the mixture comprising the components (i) and (ii) at concentrations a and b; • x=efficacy, expressed in % of the untreated control, when using component (i) at the concentration a; • y=efficacy, expressed in % of the untreated control, when using component (ii) at the concentration b.

[2] = tested on: nitrification in soil Limburgerhof; experiment: Inhibition of nitrification in soil, Experiment 1 (incubation 28 days)
Protocol: as §1, §2, §3, §4, §5, §6, §7

[3] = tested on: nitrification in soil Limburgerhof; experiment: Inhibition of nitrification in soil, mixtures with R^1 is CH2CH3, tested analogously (50 g soil, 4 replicates, 28 and 42 days); settings: R^1 is CH2CH3 series
Protocol: as §2, §3
The nitrification inhibition is expressed as % of NH4—N recovery from fertilized NH4—N(100%) after subtraction of unfertilized control soil, and as % inhibition of NO3—N formation (% reduction of NO3^− production) according to the formula: […]
as §6, §7
The following mixtures were tested analogously using 50 g soil Limburgerhof as defined above and ammonium sulfate as fertilizer in an amount N of 10 mg NH4N/100 g soil (number of replicates: 4)

[4] = (i) 0.1, (ii) 0 wt.-% relative to NH4—N
[5] = (i) 0.3, (ii) 0 wt.-% relative to NH4—N
[6] = (i) 0.9, (ii) 0 wt.-% relative to NH4—N
[7] = (i) 2.7, (ii) 0 wt.-% relative to NH4—N
[8] = (i) 0.2, (ii) 0 wt.-% relative to NH4—N
[9] = (i) 0.4, (ii) 0 wt.-% relative to NH4—N
[10] = (i) 0.8, (ii) 0 wt.-% relative to NH4—N
[11] = (i) 0, (ii) 0.2 wt.-% relative to NH4—N
[12] = (i) 0, (ii) 0.5 wt.-% relative to NH4—N
[13] = (i) 0, (ii) 1.25 wt.-% relative to NH4—N
[14] = (i) 0, (ii) 3.13 wt.-% relative to NH4—N
[15] = (i) 0, (ii) 1 wt.-% relative to NH4—N
[16] = (i) 0, (ii) 2 wt.-% relative to NH4—N

COc1cc(C)n[nH]1 [Component (i)]
% Inhibition of NO3^− production after 42 days, Measured [1, 4]: 2.5%
% Inhibition of NO3^− production after 42 days, Measured [1, 5]: 12.2%
% NH4—N recovery from fertilized NH4—N after 42 days, Measured [1, 5]: 1.9%
% Inhibition of NO3^− production after 42 days, Measured [1, 6]: 42.1%
% NH4—N recovery from fertilized NH4—N after 42 days, Measured [1, 6]: 29.6%
% Inhibition of NO3^− production after 42 days, Measured [1, 7]: 83.8%
% NH4—N recovery from fertilized NH4—N after 42 days, Measured [1, 7]: 64.4%
% Inhibition of NO3^− production after 28 days, Measured [2, 4]: 0.5%
% NH4—N recovery from fertilized NH4—N after 28 days, Measured [2, 4]: 0.7%
% Inhibition of NO3^− production after 28 days, Measured [2, 8]: 25.8%
% NH4—N recovery from fertilized NH4—N after 28 days, Measured [2, 8]: 17.2%
% Inhibition of NO3^− production after 28 days, Measured [2, 9]: 44.2%
% NH4—N recovery from fertilized NH4—N after 28 days, Measured [2, 9]: 41.8%
% Inhibition of NO3^− production after 28 days, Measured [2, 10]: 67.6%
% NH4—N recovery from fertilized NH4—N after 28 days, Measured [2, 10]: 62.6%

N#CN=C(N)N [Component (ii), Dicyandiamide]
% Inhibition of NO3^− production after 42 days, Measured [1, 11]: 9.2%
% NH4—N recovery from fertilized NH4—N after 42 days, Measured [1, 11]: 0%
% Inhibition of NO3^− production after 42 days, Measured [1, 12]: 10.4%
% Inhibition of NO3^− production after 42 days, Measured [1, 13]: 10.0%
% Inhibition of NO3^− production after 42 days, Measured [1, 14]: 15.4%
% Inhibition of NO3^− production after 28 days, Measured [3, 13]: 4.3%
% Inhibition of NO3^− production after 42 days, Measured [3, 13]: 4.0%
% NH4—N recovery from fertilized NH4—N after 28 days, Measured [3, 13]: 0.0%
% NH4—N recovery from fertilized NH4—N after 42 days, Measured [3, 13]: 0.0%
% Inhibition of NO3^− production after 28 days, Measured [3, 14]: 15.7%
% Inhibition of NO3^− production after 42 days, Measured [3, 14]: 4.0%
% NH4—N recovery from fertilized NH4—N after 28 days, Measured [3, 14]: 0.0%
% NH4—N recovery from fertilized NH4—N after 42 days, Measured [3, 14]: 0.0%
% Inhibition of NO3^− production after 28 days, Measured ([2]; (i) 0, (ii) 0.25 wt.-% relative to NH4—N): −1.2%
% Inhibition of NO3^− production after 28 days, Measured [2, 12]: 7.7%
% Inhibition of NO3^− production after 28 days, Measured [2, 15]: 3.5%
% NH4—N recovery from fertilized NH4—N after 28 days, Measured [2, 15]: 0.8%
% Inhibition of NO3^− production after 28 days, Measured [2, 16]: 16.3%
% NH4—N recovery from fertilized NH4—N after 28 days, Measured [2, 16]: 9.0%
